Data reported in US10770169B2, “Method of providing a treatment to a subject based on a dynamic pathway map” (THE REGENTS OF THE UNIVERSITY OF CALIFORNIA, priority 2010, dated 2020).
Where two headings read alike, the source gives them in different places.

Tests used:
[1] = system: luminal, basal, claudin-low and ERBB2AMP breast cancer cell lines; test: Associations of clinically relevant subtypes and response (non-parametric ANOVA or t-test on GI50 ranks); type: cell-based, human; details: Table 6; most sensitive subtype, FDR p<0.20
Summary of the method: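 GI50 values were compared between cell-line subtype groups by non-parametric ANOVA or t-test on ranks. P-values from three test sets were combined and FDR-corrected. Significant three-group effects were followed by post-hoc comparison of each group against all others, and FDR p<0.20 counted as significant.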

[2] = system: panel of 55 breast cancer cell lines; test: Cell growth inhibition assay (Cell Titer Glo, 72 h, 9 doses; GI50, TGI, LC50); type: cell-based, human; details: Homo sapiens, read-out: GI50 (converted)

CS(=O)(=O)CCNCc1ccc(-c2ccc3ncnc(Nc4ccc(OCc5cccc(F)c5)c(Cl)c4)c3c2)o1 [Lapatinib]
Subtype specificity [1]: Luminal/ERBB2AMP | GI50 ([2]; AU565, cell line AU565, censored GI50 values): 0.398 µM | GI50 ([2]; AU565, cell line AU565): 0.398 µM | GI50 ([2]; BT-20, cell line BT20): 16.6 µM | GI50 ([2]; BT-474, cell line BT474, censored GI50 values): 0.398 µM | GI50 ([2]; BT-474, cell line BT474): 0.398 µM | GI50 ([2]; BT-483, cell line BT483): 16.6 µM | GI50 ([2]; BT-549, cell line BT549): 16.6 µM | GI50 ([2]; CAMA-1, cell line CAMA1): 16.6 µM | GI50 ([2]; HCC38, cell line HCC38): 16.6 µM | GI50 ([2]; HCC70, cell line HCC70): 11 µM | GI50 ([2]; HCC202, cell line HCC202, censored GI50 values): 0.759 µM | GI50 ([2]; HCC202, cell line HCC202): 0.759 µM | GI50 ([2]; HCC1143, cell line HCC1143): 16.6 µM | GI50 ([2]; HCC1187, cell line HCC1187): 16.6 µM | GI50 ([2]; HCC1395, cell line HCC1395): 16.6 µM | GI50 ([2]; HCC1419, cell line HCC1419, censored GI50 values): 0.269 µM | GI50 ([2]; HCC1419, cell line HCC1419): 0.269 µM | GI50 ([2]; HCC1428, cell line HCC1428): 16.6 µM | GI50 ([2]; HCC1500, cell line HCC1500): 16.6 µM | GI50 ([2]; HCC1806, cell line HCC1806): 16.6 µM | GI50 ([2]; HCC1937, cell line HCC1937): 16.6 µM | GI50 ([2]; HCC1954, cell line HCC1954, censored GI50 values): 2.75 µM | GI50 ([2]; HCC1954, cell line HCC1954): 2.75 µM | GI50 ([2]; MCF7, cell line MCF7): 16.6 µM | GI50 ([2]; MDA-MB-157, cell line MDAMB157): 16.6 µM | GI50 ([2]; MDA-MB-175-VII, cell line MDAMB175VII, censored GI50 values): 0.933 µM | GI50 ([2]; MDA-MB-231, cell line MDAMB231): 16.6 µM | GI50 ([2]; MDA-MB-361, cell line MDAMB361, censored GI50 values): 8.91 µM | GI50 ([2]; MDA-MB-361, cell line MDAMB361): 8.91 µM | GI50 ([2]; MDA-MB-436, cell line MDAMB436): 16.6 µM | GI50 ([2]; MDA-MB-453, cell line MDAMB453, censored GI50 values): 8.91 µM | GI50 ([2]; MDA-MB-453, cell line MDAMB453): 8.91 µM | GI50 ([2]; MDA-MB-468, cell line MDAMB468): 16.6 µM | GI50 ([2]; SK-BR-3, cell line SKBR3, censored GI50 values): 0.513 µM | GI50 ([2]; SK-BR-3, cell line SKBR3): 0.513 µM | GI50 ([2]; SUM52PE, cell line SUM52PE): 16.6 µM | GI50 ([2]; SUM225CWN, cell line SUM225CWN, censored GI50 values): 0.692 µM | GI50 ([2]; SUM225CWN, cell line SUM225CWN): 0.692 µM | GI50 ([2]; T47D, cell line T47D): 16.6 µM | GI50 ([2]; UACC-812, cell line UACC812, censored GI50 values): 0.457 µM | GI50 ([2]; UACC-812, cell line UACC812): 0.457 µM | GI50 ([2]; UACC-893, cell line UACC893, censored GI50 values): 1.82 µM | GI50 ([2]; UACC-893, cell line UACC893): 1.82 µM | GI50 ([2]; ZR-75-1, cell line ZR751): 16.6 µM | GI50 ([2]; ZR-75B, cell line ZR75B): 16.6 µM | GI50 ([2]; cell line 600MPE): 16.6 µM | GI50 ([2]; cell line HCC2185, censored GI50 values): 3.8 µM | GI50 ([2]; cell line HCC2185): 3.8 µM | GI50 ([2]; cell line HCC3153): 16.6 µM | GI50 ([2]; cell line MDAMB175V): 0.933 µM | GI50 ([2]; cell line SUM1315MO): 15.5 µM

CCN(CC)CCCCNc1ncc2cc(-c3cc(OC)cc(OC)c3)c(NC(=O)NC(C)(C)C)nc2n1 [PD173074]
Subtype specificity [1]: Claudin-low | GI50 ([2]; 600MPE cell line, censored GI50 values): 9.77 µM | GI50 ([2]; AU565, AU565 cell line, censored GI50 values): 7.41 µM | GI50 ([2]; AU565, cell line AU565): 7.41 µM | GI50 ([2]; BT-20, BT20 cell line, censored GI50 values): 15.8 µM | GI50 ([2]; BT-20, cell line BT20): 15.8 µM | GI50 ([2]; BT-474, cell line BT474): 33.1 µM | GI50 ([2]; BT-549, BT549 cell line, censored GI50 values): 7.41 µM | GI50 ([2]; BT-549, cell line BT549): 7.41 µM | GI50 ([2]; HCC38, cell line HCC38): 2.95 µM | GI50 ([2]; HCC70, cell line HCC70): 7.08 µM | GI50 ([2]; HCC202, cell line HCC202): 8.51 µM | GI50 ([2]; HCC1143, HCC1143 cell line, censored GI50 values): 13.5 µM | GI50 ([2]; HCC1143, cell line HCC1143): 13.5 µM | GI50 ([2]; HCC1187, HCC1187 cell line, censored GI50 values): 10.7 µM | GI50 ([2]; HCC1187, cell line HCC1187): 10.7 µM | GI50 ([2]; HCC1395, HCC1395 cell line, censored GI50 values): 0.617 µM | GI50 ([2]; HCC1395, cell line HCC1395): 0.617 µM | GI50 ([2]; HCC1419, HCC1419 cell line, censored GI50 values): 4.47 µM | GI50 ([2]; HCC1419, cell line HCC1419): 4.47 µM | GI50 ([2]; HCC1428, HCC1428 cell line, censored GI50 values): 6.76 µM | GI50 ([2]; HCC1428, cell line HCC1428): 6.76 µM | GI50 ([2]; HCC1500, cell line HCC1500): 24.5 µM | GI50 ([2]; HCC1806, HCC1806 cell line, censored GI50 values): 5.01 µM | GI50 ([2]; HCC1806, cell line HCC1806): 5.01 µM | GI50 ([2]; HCC1937, HCC1937 cell line, censored GI50 values): 7.59 µM | GI50 ([2]; HCC1937, cell line HCC1937): 7.59 µM | GI50 ([2]; HCC1954, HCC1954 cell line, censored GI50 values): 7.59 µM | GI50 ([2]; HCC1954, cell line HCC1954): 7.59 µM | GI50 ([2]; MDA-MB-157, cell line MDAMB157): 2.34 µM | GI50 ([2]; MDA-MB-231, cell line MDAMB231): 6.76 µM | GI50 ([2]; MDA-MB-361, cell line MDAMB361): 15.1 µM | GI50 ([2]; MDA-MB-436, cell line MDAMB436): 6.46 µM | GI50 ([2]; MDA-MB-453, cell line MDAMB453): 1.95 µM | GI50 ([2]; MDA-MB-468, cell line MDAMB468): 6.61 µM | GI50 ([2]; SK-BR-3, cell line SKBR3): 7.94 µM | GI50 ([2]; SUM52PE, cell line SUM52PE): 0.0229 µM | GI50 ([2]; SUM149PT, cell line SUM149PT): 9.12 µM | GI50 ([2]; SUM-159-PT, cell line SUM159PT): 6.46 µM | GI50 ([2]; T47D, cell line T47D): 13.5 µM | GI50 ([2]; UACC-812, cell line UACC812): 7.08 µM | GI50 ([2]; UACC-893, cell line UACC893): 6.92 µM | GI50 ([2]; ZR-75-1, cell line ZR751): 15.5 µM | GI50 ([2]; cell line 600MPE): 9.77 µM | GI50 ([2]; cell line HCC2185): 29.5 µM | GI50 ([2]; cell line HCC3153): 15.5 µM | GI50 ([2]; cell line LY2): 7.41 µM | GI50 ([2]; cell line MDAMB134V): 18.6 µM | GI50 ([2]; cell line SUM1315MO): 3.39 µM
